The values below are quoted from earlier work in US6602521B1, “Multiplex drug delivery system suitable for oral administration” (Impax Pharmaceuticals, Inc., priority 1998, dated 2003).

Consider `O=[N+]([O-])O[C@@H]1CO[C@H]2[C@@H]1OC[C@@H]2O` [Isosorbide mononitrate, 1,4:3,6-dihydro-D-glucitrol 5-nitrate], for which the “absorption from the gastrointestinal tract” value (gastrointestinal tract) was “rapidly and completely absorbed”. The rate of clearance entry (healthy young adults vs patients with various degrees of renal, hepatic, or cardiac dysfunction) is “the same”. Moreover, the “first pass metabolism in the liver” value (in humans) was “not subject to first pass metabolism”. Further, where the note is “in vivo”, the overall elimination half-life result is listed as “about 6 hours”.
